How the values were obtained:
[1] = molecular target: double-stranded nucleic acids; assay: Binding constant (Kb) of fluorescent dye with double-stranded nucleic acids; conditions: Kp from Molecular Probes catalog divided by 55
Description: The fluorescent dyes useful herein are generally defined as unsymmetrical cyanine dyes having a binding constant (Kb) within the range of from about 1×104 to about 5×105 (molar^-1). As used to define Kb, "about" refers to a variance of 10%. The dyes are also water-soluble or water-dispersible so they can bind to the nucleic acids in the aqueous reaction mixture. Depending upon the anions used, the dyes may be dissolved in a water-miscible solvent.
Particularly useful fluorescent dyes are commercially available from Molecular Probes, Inc. having the trade names and Kp values listed in Table I below. However, this invention is not to be construed as limited to the particular Molecular Probes, Inc. dyes listed therein since these are but preferred dyes. The cations of these preferred dyes are also identified below by chemical structure. The compounds can include any suitable divalent anion, or two monovalent anions. Iodide is preferred. [drawing 3]
*The Kb values in the table were calculated by dividing the partitio
coefficient (Kp) reported in the Molecular Probes, Inc. catalog, page 224
by 55, the molarity of water.

[2] = tested on: HIV-I DNA; assay: Example 3: fluorescence after amplification with dye; usefulness / PCR inhibition; type: biochemical
Method: The primers used in Example 3 had the following sequences which are complementary to the gag region of HIV-I DNA: Amplification experiments like those of Example 2 were also carried out to evaluate the usefulness of several other conventional fluorescent dye stains. In these assays, primers identified above as SEQ ID NO:3 and SEQ ID NO:4 were used, as well as the probe identified as SEQ ID NO:6. […] Fluorescence was determined as described in Example 2 except that all amplified samples were mixed with a solution of YOYO-1 (0.1 μmolar) to provide a common minimum threshold of signal.

[3] = tested on: HIV-I DNA; assay: Example 2: leuco dye color scores of amplified target in pouches; type: biochemical; conditions: dye added prior to amplification
Method: The method of this invention was compared to an amplification and detection method outside the scope of this invention, which was carried out using YOYO-1 (1 μmolar final concentration), a tetravalent fluorescent dye, in the buffered solution described above. This dye has the following structure: [drawing 4]
Amplification was carried out using self-contained chemical pouches such as those described in U.S. Pat. No. 5,229,297 (Schnipelsky et al). Those pouches contained the capture probe SEQ ID NO:5 attached to particles which were immobilized in a detection channel where reactions can take place.
The pouches were loaded with reagents, as follows:
The PCR reaction mixture of Example 1 (except the DNA polymerase) was made to a volume of 5472 μl. The resulting mixture was aliquoted into tubes A, B and C (1824 μl each) representing Samples A, B and C, respectively.
The sample in Tube A was diluted with buffer (220 μl) and subjected to amplification without any fluorescence dye present. The dye was added at the end of amplification for quantitative detection of the resulting products.
In addition to the PCR reagents, the sample in Tube B contained YOYO-1 fluorescent dye (0.1 μmolar) which had been added prior to amplification (220 μl of a 10 μmolar solution).
The sample in Tube C also contained YO-PRO-1 fluorescent dye (0.1 μmolar) which had been added prior to amplification (220 μl of a 10 μmolar solution).
The DNA polymerase (88 μl) and target HIV-I DNA target nucleic acid (220 μl) were then added to each tube, and the contents of the each of the three tubes were used to fill the PCR reagent compartment of eight pouches.
Amplification was carried out using the same procedures as in Example 1. The PCR protocol was similarly carried out for 40 cycles using a thermal cycler as follows:
1) Preheat to denature at 95° C. for 60 seconds,
priming and extension for 40 seconds at 63.5° C., and denaturation for 10 seconds at 95° C., and
3) final denaturation for 60 seconds at 95° C.
The results of amplification were detected in three ways: (1) color dye scores visually evaluated as 0 (no signal) to 10 (highest signal density), (2) ethidium bromide stained electrophoretic gels, and (3) fluorescence measured on a commercially available Perkin Elmer fluorimeter.
The noted color scores were obtained by using immobilized capture probes in the pouches with which the amplified target hybridized during incubation for 5 minutes at 42° C. The immobilized target was contacted with the conjugate solution (identified above) for 1 minute at 30° C., followed by the wash solution for 1 minute at 55° C. The leuco dye solution was then added at 30° C. and the resulting color signal was observed after two minutes incubation at 30° C. […]

[4] = tested on: HIV-I DNA; assay: Example 2: ethidium bromide stained electrophoretic gels of amplification products; type: biochemical; conditions: dye added prior to amplification
Method: The method of this invention was compared to an amplification and detection method outside the scope of this invention, which was carried out using YOYO-1 (1 μmolar final concentration), a tetravalent fluorescent dye, in the buffered solution described above. This dye has the following structure: [drawing 4] The PCR reaction mixture of Example 1 (except the DNA polymerase) was made to a volume of 5472 μl. The resulting mixture was aliquoted into tubes A, B and C (1824 μl each) representing Samples A, B and C, respectively. The sample in Tube A was diluted with buffer (220 μl) and subjected to amplification without any fluorescence dye present. The dye was added at the end of amplification for quantitative detection of the resulting products. In addition to the PCR reagents, the sample in Tube B contained YOYO-1 fluorescent dye (0.1 μmolar) which had been added prior to amplification (220 μl of a 10 μmolar solution). The sample in Tube C also contained YO-[…] fluorescent dye (0.1 μmolar) which had been added prior to amplification (220 μl of a 10 μmolar solution). The DNA polymerase (88 μl) and target HIV-I DNA target nucleic acid (220 μl) were then added to each tube, and the contents of the each of the three tubes were used to fill the PCR reagent compartment of eight pouches. Amplification was carried out using the same procedures as in Example 1. […] follows: The results of amplification were detected in three ways: (1) color dye scores visually evaluated as 0 (no signal) to 10 (highest signal density), (2) ethidium bromide stained electrophoretic gels, and (3) fluorescence measured on a commercially available Perkin Elmer fluorimeter. Electrophoresis was carried out using commercially available NuSieve 1.5%/Seakem Agarose 1% gels (modified to 2.5% agarose) and ethidium bromide stain. The samples were applied to the gels in conventional TBE buffer (4 μl/100 μl). Three replicate assays of each sample (A, B and C) were carried out using each detection means. The average result for each detection means was as follows: […]

SMILES: C[n+]1c(C=C2C=CN(CCC[N+](C)(C)C)c3ccccc32)oc2ccccc21 [Compound E]
- Kd [1]: 6.67 µM
- Fluorescent Signal ([2]; amplified samples mixed with YOYO-1 (0.1 μmolar)): 16
- usefulness of dye / inhibition of PCR ([2]; dye in amplification): useful
- effect of dye on amplification (color scores) [3]: not adversely affected
- Average Color Score ([3]; leuco dye, 0 (no signal) to 10 (highest signal density), 40 cycles): 6
- effect of dye on amplification (gel) [4]: allowed amplification to proceed
- Positive/negative Gel Bands ([4]; 40 cycles): 5 Positives out of 5 bands

— patent US5563037A, “Homogeneous method for assay of double-stranded nucleic acids using fluorescent dyes and kit useful therein” (Johnson & Johnson Clinical Diagnostics, Inc., priority 1995, dated 1996)
